Experimental data taken from patent publication US7129269B2, “Compound” (Sterix Ltd., priority 1996, dated 2006).
Read-outs that look alike come from different tables or passages of the source.

Assays:
[1] = biological target: T1, oestrone sulphatase (E1-STS) (Homo sapiens, UniProt P08842); test: Oestrone sulphatase (E1-STS) inhibition in intact MCF-7 breast cancer cells; format: cell-based
T1 construct: endogenous in cells; host or cells: MCF-7 breast cancer cells
T1 sequence (P08842 22-583): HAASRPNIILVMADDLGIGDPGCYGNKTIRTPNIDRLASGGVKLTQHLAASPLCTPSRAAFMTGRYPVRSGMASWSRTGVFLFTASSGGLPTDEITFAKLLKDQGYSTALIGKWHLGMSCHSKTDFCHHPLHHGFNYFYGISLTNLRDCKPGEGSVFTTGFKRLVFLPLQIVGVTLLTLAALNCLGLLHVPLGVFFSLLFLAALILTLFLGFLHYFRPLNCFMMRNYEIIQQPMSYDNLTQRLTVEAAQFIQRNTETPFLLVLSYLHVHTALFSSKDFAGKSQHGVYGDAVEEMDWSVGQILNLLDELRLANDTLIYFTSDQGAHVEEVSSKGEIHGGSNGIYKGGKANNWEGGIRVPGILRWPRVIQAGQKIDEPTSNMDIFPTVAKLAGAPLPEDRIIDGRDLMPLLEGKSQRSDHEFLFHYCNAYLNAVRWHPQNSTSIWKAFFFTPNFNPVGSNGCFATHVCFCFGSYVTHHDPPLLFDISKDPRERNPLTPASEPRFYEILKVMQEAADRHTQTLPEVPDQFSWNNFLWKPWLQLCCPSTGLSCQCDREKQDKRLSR

oestrone sulphatase [2] = biological target: T2, oestrone sulphatase (Rattus norvegicus, UniProt P15589); test: In vivo inhibition of oestrone sulphatase activity in rat liver; details: 24 hours after single oral dose in propylene glycol, 10 mg/Kg
T2 construct: from tissue; host or cells: rat liver
T2 sequence (P15589 20-577): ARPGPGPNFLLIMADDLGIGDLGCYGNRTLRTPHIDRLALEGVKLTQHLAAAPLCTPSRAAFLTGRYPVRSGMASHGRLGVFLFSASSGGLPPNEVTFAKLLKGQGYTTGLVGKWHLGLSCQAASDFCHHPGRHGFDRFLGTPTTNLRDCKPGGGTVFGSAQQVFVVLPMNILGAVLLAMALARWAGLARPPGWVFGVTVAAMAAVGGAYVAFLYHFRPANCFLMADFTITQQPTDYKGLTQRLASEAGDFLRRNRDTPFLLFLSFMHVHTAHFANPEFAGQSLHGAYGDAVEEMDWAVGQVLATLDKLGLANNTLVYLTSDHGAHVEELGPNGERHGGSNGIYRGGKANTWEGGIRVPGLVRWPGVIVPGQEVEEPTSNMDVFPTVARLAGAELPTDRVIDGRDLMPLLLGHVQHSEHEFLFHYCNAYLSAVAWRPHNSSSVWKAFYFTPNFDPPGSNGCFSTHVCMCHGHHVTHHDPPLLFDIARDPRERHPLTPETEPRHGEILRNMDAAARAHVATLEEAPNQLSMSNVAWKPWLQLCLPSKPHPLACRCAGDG
Method: FIG. 11 presents in vivo inhibition of oestrone sulphatase activity in rat liver for two isoflavones according to the present invention. […] Compounds were administered as a single 10 mg/Kg dose. Oestrone sulphatase activity was assayed in tissue samples obtained 24 h after drug administration.

oestrone sulphatase [3] = biological target: T3, oestrone sulphatase (Homo sapiens, UniProt P08842); test: Oestrone sulphatase inhibition in placental microsomes; format: biochemical; details: for % INHIBITION Sulphatase: placental microsomes
T3 construct: from tissue; host or cells: placenta (microsomes, 100,000 g)
T3 sequence (P08842 22-583): T1 sequence (P08842 22-583)

aromatase [4] = biological target: T4, aromatase (Homo sapiens, UniProt P11511)
T4 sequence (P11511 1-503): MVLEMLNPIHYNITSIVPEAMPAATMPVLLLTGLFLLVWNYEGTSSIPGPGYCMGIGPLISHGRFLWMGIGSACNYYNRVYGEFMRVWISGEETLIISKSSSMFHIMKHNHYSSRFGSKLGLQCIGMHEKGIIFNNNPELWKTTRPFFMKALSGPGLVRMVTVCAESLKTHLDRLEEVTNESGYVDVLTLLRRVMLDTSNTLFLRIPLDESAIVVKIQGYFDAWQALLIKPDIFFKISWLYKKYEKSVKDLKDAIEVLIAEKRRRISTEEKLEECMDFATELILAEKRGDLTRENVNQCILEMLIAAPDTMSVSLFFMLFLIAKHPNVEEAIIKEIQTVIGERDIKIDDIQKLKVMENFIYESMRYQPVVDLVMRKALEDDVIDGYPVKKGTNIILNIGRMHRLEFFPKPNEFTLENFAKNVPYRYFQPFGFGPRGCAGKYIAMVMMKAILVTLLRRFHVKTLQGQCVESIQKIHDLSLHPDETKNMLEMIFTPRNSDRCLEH

aromatase [5] = biological target: T4, aromatase; test: Aromatase inhibition in placental microsomes, tritiated water release assay

SMILES: NS(=O)(=O)Oc1ccc(C2CC(=O)c3c(O)cc(O)cc3O2)cc1 (stereo not shown) [Compound 20, 5,7-Dihydroxyflavanone 4′-O-sulphamate]
- % Inhibition of sulphatase activity in MCF-7 cells ([1]; 0.1 μM): 30 ± 2.8%
- % Inhibition of sulphatase activity in MCF-7 cells ([1]; 1 μM): 79 ± 1.2%
- % Inhibition of sulphatase activity in MCF-7 cells ([1]; 10 μM): > 99%
- % Inhibition of oestrone sulphatase in vivo (oestrone sulphatase [2]): 44.2 ± 3.8%
- % INHIBITION Sulphatase (oestrone sulphatase [3]; 10 μM, listed as 5,7-dehydroxy flavanone-4′-sulphamate): 98%

SMILES: NS(=O)(=O)Oc1cc(O)c2c(=O)cc(-c3ccccc3)oc2c1 [Compound 3, 5-Hydroxyflavone 7-O-sulphamate]
- % Inhibition of sulphatase activity in MCF-7 cells ([1]; 1 μM): 4.2 ± 0.9%
- % Inhibition of sulphatase activity in MCF-7 cells ([1]; 10 μM): 20.6 ± 1.2%
- % Inhibition of aromatase activity in placental microsomes at 10 μM (aromatase [4]): 85%
- % INHIBITION Sulphatase (oestrone sulphatase [3]; 1 μM): 8%
- % INHIBITION Sulphatase (oestrone sulphatase [3]; 10 μM): 21%

SMILES: NS(=O)(=O)Oc1ccc(C2COc3cc(OS(N)(=O)=O)ccc3C2)cc1 (racemic) [Compound 22, (±) Isoflavane-7,4′-O,O-bisulphamate]
- inhibition of E1-STS activity in MCF-7 cells (in words) [1]: less potent
- % Inhibition of sulphatase activity in MCF-7 cells ([1]; 0.1 μM): >99%
- % Inhibition of sulphatase activity in MCF-7 cells ([1]; 1 μM): >99%
- % Inhibition of sulphatase activity in MCF-7 cells ([1]; 10 μM): >99%
- inhibition of E1-STS activity in placental microsomes (in words) (oestrone sulphatase [3]; compared with 19): less potent
- % Inhibition of aromatase activity in placental microsomes at 10 μM (aromatase [5]): 13%
